Results: paper PMC9050923, “6,N^2-Diaryl-1,3,5-triazine-2,4-diamines: synthesis, antiproliferative activity and 3D-QSAR modeling” (RSC Advances, 2020)

Assays:
Type in all cases: cell-based
SKBR-3 = experiment: MTT assay, SKBR-3 breast cancer cells; settings: Homo sapiens, SK-BR-3; 10 μM, 72 h after the treatment, MTT, mean of three independent experiments; read-out: Percentage of cell viability SKBR-3
Protocol: (§1) The prepared compounds 1–126 were tested on three breast cancer cell lines namely, MDA-MB231, SKBR-3 and MCF-7 using MTT assay. SKBR-3 and MCF-7 cell lines are estrogen and progesterone hormone positive cell lines often used as a model for the hormone therapy.[18] MDA-MB231 is triple negative breast cancer cell line, which is negative to estrogen and progesterone receptors and human epidermal growth factor receptor 2, a perfect model for chemotherapy.[18] Initially, all the prepared compounds 1–126 were tested on these three cancer cell lines at the screening concentration (10 μM) and percentage of cell viability was calculated 72 h after the treatment (Table 1).
(§2) The growth inhibitory effect of the compounds was determined on breast tumor cell line (MDA-MB231, SKBR-3 and MCF-7) at different concentrations with methotrexate and nilotinib as positive controls (Table 2).
(§3) The cytotoxic activity of 6,N^2-diaryl-1,3,5-triazine-2,4-diamines (1–126) was evaluated against three breast carcinoma cell lines (MDA-MB231, SKBR-3, and MCF-7) and normal breast cell line (MCF-10A) by MTT assay.[22] All cells were obtained from the American Type Culture Collection and were grown in 10% fetal bovine serum and 1% pen-strep antibiotic supplemented media (DMEM for MDA-MB231 and SKBR-3, RPMI for MCF-7, and MEGM for MCF-10A). For MTT assay, 20 000 to 75 000 cells per mL (based on the doubling time for each cell line) were seeded in 96 well plates and incubated for 24 h at 37 °C in 5% CO2 incubator. Then, compounds at different concentrations were added followed by the incubation at 37 °C for 72 h. After that, MTT solution (0.5 mg mL^−1) was added and the plates were incubated for another 4 h. The supernatant was then discarded and 100 μL of DMSO was added to each well. The plates were then read by Tecan NanoQuant (model: infinite m200 pro) plate reader and absorbance was measured at 570 nm. GI50 values were calculated using sigmoidal concentration–response curves (see ESI ^†) generated using the GraphPad Prism 7 program. Three independent experiments were carried out and the data were represented as mean of the three experiments.

MCF-7 = experiment: MTT assay, MCF-7 breast cancer cells; settings: Homo sapiens, MCF7, 10 μM, 72 h after the treatment, mean of three independent experiments, read-out: Percentage of cell viability MCF-7
Protocol: as §1, §2, §3

MDA-MB231 = experiment: MTT assay, MDA-MB231 breast cancer cells; settings: Homo sapiens, MDA-MB-231; 10 μM, 72 h after the treatment, MTT, mean of three independent experiments; read-out: Percentage of cell viability MDA-MB231
Protocol: as §1, §2, §3

Row | SMILES | viability at 10 µM (SKBR-3) [%] | viability at 10 µM (MCF-7) [%] | viability at 10 µM (MDA-MB231) [%]
1 | Nc1nc(Nc2ccccc2)nc(-c2ccccc2)n1 [Compound 1] | 81 | 90 | 87
2 | Nc1nc(Nc2ccccc2Cl)nc(-c2ccccc2)n1 [Compound 4, N ^2-(2-Chlorophenyl)-6-phenyl-1,3,5-triazine-2,4-diamine] | 88 | 81 | 72
3 | Nc1nc(Nc2ccc(Cl)cc2)nc(-c2ccccc2)n1 [Compound 5] | 94 | 100 | 65
4 | Nc1nc(Nc2ccc(Br)cc2)nc(-c2ccccc2)n1 [Compound 6] | 97 | 100 | 65
5 | Cc1ccc(Nc2nc(N)nc(-c3ccccc3)n2)cc1 [Compound 7] | 87 | 87 | 98
6 | COc1ccccc1Nc1nc(N)nc(-c2ccccc2)n1 [Compound 8] | 97 | 91 | 78
7 | COc1ccc(Nc2nc(N)nc(-c3ccccc3)n2)cc1 [Compound 9] | 96 | 84 | 98
8 | Nc1nc(Nc2ccc(OC(F)(F)F)cc2)nc(-c2ccccc2)n1 [Compound 10] | 86 | 92 | 96
9 | CC(C)c1ccc(Nc2nc(N)nc(-c3ccccc3)n2)cc1 [Compound 11] | 86 | 99 | 99
10 | Nc1nc(Nc2cccnc2)nc(-c2ccccc2)n1 [Compound 12] | 78 | 87 | 59
11 | Nc1nc(Nc2ccccc2)nc(-c2cccc(F)c2)n1 [Compound 13] | 100 | 89 | 100
12 | Nc1nc(Nc2ccc(Cl)cc2)nc(-c2cccc(F)c2)n1 [Compound 15] | 100 | 89 | 100
13 | CC(C)c1ccc(Nc2nc(N)nc(-c3cccc(F)c3)n2)cc1 [Compound 20] | 100 | 92 | 100
14 | Nc1nc(Nc2ccccc2)nc(-c2ccc(F)cc2)n1 [Compound 21] | 94 | 100 | 83
15 | Nc1nc(Nc2ccccc2F)nc(-c2ccc(F)cc2)n1 [Compound 22] | 85 | 100 | 83
16 | Nc1nc(Nc2ccc(F)cc2)nc(-c2ccc(F)cc2)n1 [Compound 23] | 100 | 93 | 81
17 | Nc1nc(Nc2ccccc2Cl)nc(-c2ccc(F)cc2)n1 [Compound 24] | 75 | 91 | 75
18 | Nc1nc(Nc2cccc(Cl)c2)nc(-c2ccc(F)cc2)n1 [Compound 25] | 88 | 95 | 73
19 | Nc1nc(Nc2ccc(Cl)cc2)nc(-c2ccc(F)cc2)n1 [Compound 26] | 98 | 87 | 67
20 | Nc1nc(Nc2ccc(Br)cc2)nc(-c2ccc(F)cc2)n1 [Compound 27] | 100 | 94 | 96
21 | Cc1ccc(Nc2nc(N)nc(-c3ccc(F)cc3)n2)cc1 [Compound 28] | 90 | 88 | 99
